Reference: US12522588B2, “Herbicidal compounds” (SYNGENTA CROP PROTECTION AG, priority 2020, dated 2026)

Legend:
Type in all cases: in vivo
[1] = test system: Echinochloa crus-galli (ECHCG); experiment: Pre-emergence test, glasshouse; settings: 250 g/ha
Description: (§1) Seeds of a variety of test species are sown in standard soil in pots Amaranthus retoflexus (AMARE), Abutilon theophrasti (ABUTH), Setaria faberi (SETFA), Echinochloa crus-galli (ECHCG), Ipomoea hederacea (IPOHE)). After cultivation for one day (pre-emergence) or after 8 days cultivation (post-emergence) under controlled conditions in a glasshouse (at 24/16° C., day/night; 14 hours light; 65% humidity), the plants are sprayed with an aqueous spray solution derived from the formulation of the technical active ingredient in acetone/water (50:50) solution containing 0.5% Tween 20 (polyoxyethelyene sorbitan monolaurate, CAS RN 9005-64-5). Compounds are applied at 250 g/ha unless otherwise stated. The test plants are then grown in a glasshouse under controlled conditions in a glasshouse (at 24/16° C., day/night; 14 hours light; 65% humidity) and watered twice daily. After 13 days for pre and post-emergence, the test is evaluated for the percentage damage caused to the plant. The biological activities are shown in the following table on a five-point scale (5=81-100%; 4=61-80%; 3=41-60%; 2=21-40%; 1=0-20%).

[2] = test system: Ipomoea hederacea (IPOHE); experiment: Pre-emergence test, glasshouse; settings: 250 g/ha
Description: as §1

[3] = test system: Setaria faberi (SETFA); experiment: Pre-emergence test, glasshouse; settings: 250 g/ha
Description: as §1

[4] = test system: Amaranthus retoflexus (AMARE); experiment: Pre-emergence test, glasshouse; settings: 250 g/ha
Description: as §1

[5] = test system: Abutilon theophrasti (ABUTH); experiment: Pre-emergence test, glasshouse; settings: 250 g/ha; for percentage damage caused to the plant, ABUTH: evaluated after 13 days, Table B2
Description: as §1

[6] = test system: Echinochloa crus-galli (ECHCG); experiment: Post-emergence test, glasshouse; settings: 250 g/ha
Description: as §1

[7] = test system: Ipomoea hederacea (IPOHE); experiment: Post-emergence test, glasshouse; settings: 250 g/ha, evaluated after 13 days, Table B1
Description: as §1

[8] = test system: Setaria faberi (SETFA); experiment: Post-emergence test, glasshouse; settings: 250 g/ha
Description: as §1

[9] = test system: Amaranthus retoflexus (AMARE); experiment: Post-emergence test, glasshouse; settings: 250 g/ha
Description: as §1

[10] = test system: Abutilon theophrasti (ABUTH); experiment: Post-emergence test, glasshouse; settings: 250 g/ha
Description: as §1

[11] = evaluated after 13 days, Table B2
[12] = evaluated after 13 days, Table B1

SMILES	percentage damage caused to the plant, ECHCG [1, 11]	percentage damage caused to the plant, IPOHE [2, 11]	percentage damage caused to the plant, SETFA [3, 11]	percentage damage caused to the plant, AMARE [4, 11]	percentage damage caused to the plant, ABUTH [5]	percentage damage caused to the plant, ECHCG [6, 12]	percentage damage caused to the plant, IPOHE [7]	percentage damage caused to the plant, SETFA [8, 12]	percentage damage caused to the plant, AMARE [9, 12]	percentage damage caused to the plant, ABUTH [10, 12]	percentage damage caused to the plant, ECHCG ([1]; comparative test)	percentage damage caused to the plant, IPOHE ([2]; comparative test)	percentage damage caused to the plant, SETFA ([3]; comparative test)	percentage damage caused to the plant, AMARE ([4]; comparative test)	percentage damage caused to the plant, LABUTH ([5]; comparative test)	percentage damage caused to the plant, ECHCG ([6]; comparative test)	percentage damage caused to the plant, SETFA ([8]; comparative test)	percentage damage caused to the plant, AMARE ([9]; comparative test)	percentage damage caused to the plant, ABUTH ([10]; comparative test)
FC(F)(F)c1cc(Oc2ncc(Cl)cn2)n(-c2cccc(Cl)c2)n1 [Compound 1.004]	2 (2=21-40%)	1 (1=0-20%)	3 (3=41-60%)	5 (5=81-100%)	1 (1=0-20%)	3 (3=41-60%)	4 (4=61-80%)	3 (3=41-60%)	5 (5=81-100%)	1 (1=0-20%)	–	–	–	–	–	–	–	–	–
Cc1ncc(-n2nc(C(F)(F)F)cc2Oc2ncc(Cl)cn2)cn1 [Compound 1.022, 5-chloro-2-[2-(2-methylpyrimidin-5-yl)-5-(trifluoromethyl)pyrazol-3-yl]oxy-pyrimidine]	4 (4=61-80%)	1 (1=0-20%)	5 (5=81-100%)	5 (5=81-100%)	–	4 (4=61-80%)	1 (1=0-20%)	4 (4=61-80%)	5 (5=81-100%)	–	–	–	–	–	–	–	–	–	–
Fc1ccccc1-n1nc(C(F)(F)F)cc1Oc1ncc(Cl)cn1 [Compound 1.033]	1 (1=0-20%)	1 (1=0-20%)	1 (1=0-20%)	2 (2=21-40%)	–	1 (1=0-20%)	1 (1=0-20%)	1 (1=0-20%)	3 (3=41-60%)	–	–	–	–	–	–	–	–	–	–
Cc1ccc(-n2nc(C(F)(F)F)cc2Oc2ncc(Cl)cn2)nn1 [Compound 1.012]	1 (1=0-20%)	1 (1=0-20%)	1 (1=0-20%)	3 (3=41-60%)	1 (1=0-20%)	1 (1=0-20%)	1 (1=0-20%)	1 (1=0-20%)	2 (2=21-40%)	1 (1=0-20%)	–	–	–	–	–	–	–	–	–
FC(F)c1cc(Oc2ncc(Cl)cn2)n(-c2ccc(C(F)(F)F)cc2)n1 [Compound 1.005]	1 (1=0-20%)	1 (1=0-20%)	2 (2=21-40%)	4 (4=61-80%)	1 (1=0-20%)	1 (1=0-20%)	2 (2=21-40%)	2 (2=21-40%)	5 (5=81-100%)	3 (3=41-60%)	–	–	–	–	–	–	–	–	–
Cc1ccc(-n2nc(C(F)(F)F)cc2Oc2ncc(Cl)cn2)cc1 [Compound 1.029]	4 (4=61-80%)	1 (1=0-20%)	4 (4=61-80%)	3 (3=41-60%)	–	2 (2=21-40%)	2 (2=21-40%)	2 (2=21-40%)	4 (4=61-80%)	–	–	–	–	–	–	–	–	–	–
FC(F)(F)c1ccc(-n2nc(C(F)(F)F)cc2Oc2ncc(Cl)cn2)cc1 [Compound 1.001, 5-chloro-2-[5-(trifluoromethyl)-2-[4-(trifluoromethyl)phenyl]pyrazol-3-yl]oxy-pyrimidine]	5 (5=81-100%)	5 (5=81-100%)	5 (5=81-100%)	5 (5=81-100%)	4 (4=61-80%)	5 (5=81-100%)	–	5 (5=81-100%)	5 (5=81-100%)	5 (5=81-100%)	5 (5=81-100%)	5 (5=81-100%)	5 (5=81-100%)	5 (5=81-100%)	4 (4=61-80%)	5 (5=81-100%)	5 (5=81-100%)	5 (5=81-100%)	5 (5=81-100%)
